Data on 40 molecules can be found in patent US10174029B2, “Pyrimidine-2,4-diamine derivatives for treatment of cancer” (THOMAS HELLEDAYS STIFTELSE FOR MEDICINSK FORSKNING, priority 2012, dated 2019).

The target in the first experiment is MTH1 (Homo sapiens, UniProt P36639). Nature of the experiment: MTH1 enzymatic assay and IC50 value determination (malachite green). In kind it is biochemical. The note with it: MTH1 4.8 nM, dGTP 100 μM, 15 minutes at 22° C.; group: between 2 μM and 10 μM. As to the method: MTH1 Enzymatic Assay and IC50 Value Determination
MTH1 catalyzes the hydrolysis of dGTP to dGMP and PPi. By coupling the reaction to pyrophosphatase added in excess PPi is converted to Pi that can be detected by using the malachite green assay reagent. Briefly, for IC50 value determination the compound to be analyzed is diluted in assay buffer in a 1:3 dilution series generating 12 different compound concentrations giving a final DMSO concentration of 1% in the assay well. MTH1 diluted in assay buffer (100 mM Tris-acetate, 40 mM NaCl, 10 mM magnesium acetate, 1 mM DTT and 0.005% Tween 20) fortified with E. coli pyrophosphatase (0.8 U/ml) is added to a final concentration of 4.8 nM. dGTP diluted in assay buffer is added to a final concentration of 100 μM. The reaction mixture is incubated with shaking for 15 minutes at 22° C. To 100 μl reaction mixture is 25 μl Malachite green assay regent (0.095% Malachite green in 17% H2SO4, 1.5% Ammonium molybdate, 0.17% Tween 20) added followed by incubation with shaking for 15 minutes at 22° C.
The absorbance of the assay plate is read at 630 nm using an EnVision Multilabel plate reader. The IC50 value is determined by fitting a dose response curve to the data points using nonlinear regression analysis and the equation Y=Bottom+(Top−Bottom)/(1+10^((Log IC50−X)*HillSlope)), where Y is the read absorbance at 630 nm and X is log [compound].
`CCOC(=O)CNc1cc(-c2cccc(C)c2C)nc(N)n1` [Example 396, Ethyl 2-{[2-amino-6-(2,3-dimethylphenyl)pyrimidin-4-yl]amino}acetate]: the 50% inhibitory concentration (IC50) was 2 to 10 µM.

In turn, `CC(C)(C)Nc1cc(-c2ccc(Cl)cc2)nc(N)n1` [Example 14, 4-N-tert-butyl-6-(4-chlorophenyl)pyrimidine-2,4-diamine] gave a concentration for half-maximal inhibition (IC50) of 2 to 10 µM. With `Cc1nnc(CNc2cc(-c3cccc(C)c3C)nc(N)n2)[nH]1` [Example 399, 6-(2,3-Dimethylphenyl)-4-N-[(5-methyl-4H-1,2,4-triazol-3-yl)methyl]pyrimidine-2,4-diamine], the IC50 was in the range of 2 to 10 µM. `COc1ccc(C(CNc2cc(-c3cccc(C)c3C)nc(N)n2)N2CCCC2)cc1` (stereo not shown) [Example 345, 6-(2,3-Dimethylphenyl)-4-N-[2-(4-methoxyphenyl)-2-(pyrrolidin-1-yl)ethyl]pyrimidine-2,4-diamine] came in with an IC50 of 2 to 10 µM. Still for that read-out and setting: for `Cc1cccc(-c2cc(N[C@@H]3CN4CCC3CC4)nc(N)n2)c1C` [Example 281, 4-N-[(3S)-1-azabicyclo[2.2.2]octan-3-yl]-6-(2,3-dimethylphenyl)pyrimidine-2,4-diamine] the value was 2 to 10 µM.

The experiment is the same for the next values; noted with them: MTH1 4.8 nM, dGTP 100 μM, 15 minutes at 22° C.; group: less than 200 nM.
Turning to `CNc1cc(-c2ccc(CN)cc2)nc(N)n1` [Example 329, 6-[4-(Aminomethyl)phenyl]-4-N-methylpyrimidine-2,4-diamine], the half-inhibitory concentration (IC50) is less than 0.2 µM.

Consider `Nc1nc(NCCc2ccc(S(N)(=O)=O)cc2)cc(-c2ccc(F)c(F)c2F)n1` [Example 434, 4-(2-{[2-amino-6-(2,3,4-trifluorophenyl)pyrimidin-4-yl]amino}ethyl)benzene-1-sulfonamide], for which the half-inhibitory concentration (IC50) is less than 0.2 µM.

`Cc1c(F)ccc(-c2cc(NC3CC3)nc(N)n2)c1C` [Example 436, 4-N-cyclopropyl-6-(4-fluoro-2,3-dimethylphenyl)pyrimidine-2,4-diamine] returned a half-maximal inhibitory concentration (IC50) of less than 0.2 µM. The same measure, in the same setting: the result for `Cc1cccc(-c2cc(NCCCNS(=O)(=O)c3ccc(S(N)(=O)=O)cc3)nc(N)n2)c1C` [Example 444, 1-N-(3-{[2-amino-6-(2,3-dimethylphenyl)pyrimidin-4-yl]amino}propyl)benzene-1,4-disulfonamide] reads less than 0.2 µM; that for `CNc1cc(-c2cc(C#N)ccc2C)nc(N)n1` [Example 211, 3-[2-amino-6-(methylamino)pyrimidin-4-yl]-4-methylbenzonitrile], less than 0.2 µM. Same read-out and setting: the result for `Cc1cccc(-c2cc(NCc3ccc4cn[nH]c4c3)nc(N)n2)c1C` [Example 252, 6-(2,3-dimethylphenyl)-4-N-(1H-indazol-6-ylmethyl)pyrimidine-2,4-diamine] reads less than 0.2 µM; that for `CNc1cc(-c2ccncc2Cl)nc(N)n1` [Example 149, 6-(3-chloropyridin-4-yl)-4-N-methylpyrimidine-2,4-diamine], less than 0.2 µM. On the same count and under the same terms, the result for `[2H]C([2H])([2H])Nc1cc(-c2cccc(C)c2C)nc(N)n1` [Example 420, 6-(2,3-dimethylphenyl)-4-N—(^2H3)methylpyrimidine-2,4-diamine] reads less than 0.2 µM; that for `C#CCNc1cc(-c2cccc(Cl)c2C)nc(N)n1` [Example 429, 6-(3-chloro-2-methylphenyl)-4-N-(prop-2-yn-1-yl)pyrimidine-2,4-diamine], less than 0.2 µM; that for `CNc1cc(-c2ccc(OCC3CCN(C(=O)OC(C)(C)C)CC3)c(COC)c2)nc(N)n1` [Example 256, tert-butyl 4-{4-[2-amino-6-(methylamino)pyrimidin-4-yl]-2-(methoxymethyl)phenoxymethyl}piperidine-1-carboxylate], less than 0.2 µM. `Cc1cccc(-c2cc(NCCCNC(=O)c3cccc(Br)c3)nc(N)n2)c1C` [Example 367, N-(3-{[2-Amino-6-(2,3-dimethylphenyl)pyrimidin-4-yl]amino}propyl)-3-bromobenzamide]: the IC50 was less than 0.2 µM. `CNc1cc(-c2cc(C(C)C)ccc2OC)nc(N)n1` [Example 198, 6-[2-methoxy-5-(propan-2-yl)phenyl]-4-N-methylpyrimidine-2,4-diamine] gave an IC50 of less than 0.2 µM.

For `CNc1cc(-c2cccc(F)c2F)nc(N)n1` [Example 93, 6-(2,3-difluorophenyl)-4-N-methylpyrimidine-2,4-diamine], the IC50 is less than 0.2 µM.

The molecule `Cc1cccc(-c2cc(NCCc3ccc(S(C)(=O)=O)cc3)nc(N)n2)c1C` [Example 331, 6-(2,3-Dimethylphenyl)-4-N-[2-(4-methanesulfonylphenyl)ethyl]pyrimidine-2,4-diamine] registered an IC50 of less than 0.2 µM. On the same count and under the same terms, for `Cc1cccc(-c2cc(NCCCNS(=O)(=O)c3ccccc3)nc(N)n2)c1C` [Example 376, N-(3-{[2-Amino-6-(2,3-dimethylphenyl)pyrimidin-4-yl]amino}propyl)benzenesulfonamide] the value was less than 0.2 µM.

On to `CNC(=O)c1ccc(-c2cc(NC)nc(N)n2)cc1` [Example 110, 4-[2-amino-6-(methylamino)pyrimidin-4-yl]-N-methylbenzamide], for which the half-maximal inhibitory concentration (IC50) was less than 0.2 µM.

Turning to `CNc1cc(-c2ccc(OC(F)(F)F)cc2)nc(N)n1` [Example 81, 4-N-methyl-6-[4-(trifluoromethoxy)phenyl]pyrimidine-2,4-diamine], the IC50 was less than 0.2 µM. Still for that read-out and setting: the result for `CNc1cc(-c2ccc(O)c(Cl)c2Cl)nc(N)n1` [Example 105, 4-[2-amino-6-(methylamino)pyrimidin-4-yl]-2,3-dichlorophenol] reads less than 0.2 µM; that for `CNc1cc(-c2cccc(NC(=O)C(=O)c3ccccc3)c2)nc(N)n1` [Example 316, N-{3-[2-Amino-6-(methylamino)pyrimidin-4-yl]phenyl}-2-oxo-2-phenylacetamide], less than 0.2 µM. In the case of `Nc1nc(NC2CCC2)cc(-c2cccc(Cl)c2Cl)n1` [Example 64, 4-N-cyclobutyl-6-(2,3-dichlorophenyl)pyrimidine-2,4-diamine], the half-maximal inhibitory concentration (IC50) is less than 0.2 µM. Turning to `CCNc1cc(-c2cccc(Cl)c2Cl)nc(N)n1` [Example 66, 6-(2,3-dichlorophenyl)-4-N-ethylpyrimidine-2,4-diamine], the IC50 is less than 0.2 µM. In the case of `CC(=O)Nc1cccc(OCCCNc2cc(-c3cccc(C)c3C)nc(N)n2)c1` [Example 363, N-[3-(3-{[2-Amino-6-(2,3-dimethylphenyl)pyrimidin-4-yl]amino}propoxy)phenyl]acetamide], the 50% inhibitory concentration (IC50) was less than 0.2 µM. As for `C=Cc1ccc(-c2cc(NC)nc(N)n2)cc1` [Example 111, 6-(4-ethenylphenyl)-4-N-methylpyrimidine-2,4-diamine], the IC50 was less than 0.2 µM.

Take `CNc1cc(-c2cccc(C(=O)N3CCOCC3)c2)nc(N)n1` [Example 44, 4-N-methyl-6-[3-(morpholine-4-carbonyl)phenyl]pyrimidine-2,4-diamine]: the IC50 is less than 0.2 µM. On the same count and under the same terms, for `CNc1cc(-c2ccc(OC)c(C)c2)nc(N)n1` [Example 79, 6-(4-methoxy-3-methylphenyl)-4-N-methylpyrimidine-2,4-diamine] the value was less than 0.2 µM. With `Cc1cccc(-c2cc(NCCc3ccc(C#N)cc3)nc(N)n2)c1C` [Example 333, 4-(2-{[2-Amino-6-(2,3-dimethylphenyl)pyrimidin-4-yl]amino}ethyl)benzonitrile], the IC50 was less than 0.2 µM.

`CNc1cc(-c2ccc(C(F)(F)F)cc2)nc(N)n1` [Example 36, 4-N-methyl-6-[4-(trifluoromethyl)phenyl]pyrimidine-2,4-diamine] showed a half-maximal inhibitory concentration (IC50) of less than 0.2 µM. For the molecule `Nc1nc(NCCc2ccc(O)cc2)cc(-c2cccc(Cl)c2Cl)n1` [Example 301, 4-(2-{[2-Amino-6-(2,3-dichlorophenyl)pyrimidin-4-yl]amino}ethyl)phenol], the IC50 was less than 0.2 µM.

`Nc1nc(NC23CC4CC(CC2C4)C3)cc(-c2cccc(Cl)c2Cl)n1` [Example 304, 6-(2,3-Dichlorophenyl)-4-N-{tricyclo[3.3.1.0^3,7]nonan-3-yl}pyrimidine-2,4-diamine] showed a half-maximal inhibitory concentration (IC50) of less than 0.2 µM.

In the case of `CNc1cc(-c2cccc(NC(=O)C(C)=O)c2)nc(N)n1` [Example 315, N-{3-[2-Amino-6-(methylamino)pyrimidin-4-yl]phenyl}-2-oxopropanamide], the IC50 was less than 0.2 µM.

In turn, `Cc1cccc(-c2cc(NCCNc3cccnc3)nc(N)n2)c1C` [Example 454, 6-(2,3-dimethylphenyl)-4-N-{2-[(pyridin-3-yl)amino]ethyl}pyrimidine-2,4-diamine] yielded an IC50 of less than 0.2 µM. Same read-out and setting: the result for `CNc1cc(-c2cc(Cl)ccc2OC)nc(N)n1` [Example 201, 6-(5-chloro-2-methoxyphenyl)-4-N-methylpyrimidine-2,4-diamine] reads less than 0.2 µM. Same read-out and setting: the result for `C=CCNc1cc(-c2cccc(C)c2C)nc(N)n1` [Example 379, 6-(2,3-Dimethylphenyl)-4-N-(prop-2-en-1-yl)pyrimidine-2,4-diamine] reads less than 0.2 µM; that for `CNc1cc(-c2cccc(NC(=O)C(O)c3ccccc3)c2)nc(N)n1` (stereo not shown) [Example 324, N-{3-[2-Amino-6-(methylamino)pyrimidin-4-yl]phenyl}-2-hydroxy-2-phenylacetamide], less than 0.2 µM. Same read-out and setting: the result for `CNc1cc(-c2ccc(C(C)(C)O)cc2)nc(N)n1` [Example 173, 2-{4-[2-amino-6-(methylamino)pyrimidin-4-yl]phenyl}propan-2-ol] reads less than 0.2 µM.

A word on the IC50: it is the concentration that gives 50% inhibition. A high value points to lower potency.
